Data: publication PMC7179419 (Molecules, 2020)
Like-named read-outs stand apart in the source and are kept apart here.

Key:
[1] = tested on: human breast adenocarcinoma (MCF-7); assay: cells; type: cell-based; conditions: for IC50: read-out: MCF-7 IC50; for SI (MCF-7): SI = IC50 BALB/3T3 / IC50 MCF-7
Protocol: (§1) For a more accurate evaluation of cytotoxic activity, the effect on normal murine embryonic fibroblast cell line (BALB/3T3) was also tested according to the previously published procedure. Detailed information concerning antiproliferation assay can be found in Supplementary Materials. […]
(§2) The antiproliferative activity
(§3) Four human cancer cell lines and one murine normal cell line were used to evaluate […]
(§4) (A549), human breast adenocarcinoma (MCF-7), human colon adenocarcinoma cell lines sensitive and resistant to doxorubicin (LoVo), respectively, and normal murine embryonic fibroblast cell line (BALB/3T3). The BALB/3T3 cell line was purchased from the American Type Culture Collection (ATCC, Manassas, VA, USA), A549 and MCF-7 cell lines—from European Collection of Authenticated Cell Cultures (Salisbury, UK), LoVo cell line was purchased from the ATCC (ATCC, Manassas, VA, USA). All the cell lines are maintained in the Institute of Immunology and Experimental Therapy (IIET), Wroclaw, Poland. Human lung adenocarcinoma cell line was cultured in mixture of OptiMEM and RPMI 1640 (1:1) medium (IIET, Wroclaw, Poland), supplemented with 5% fetal bovine serum (GE Healthcare, Logan, UT, USA) and 2 mM L-glutamine (Sigma-Aldrich, Merck KGaA, Saint Louis, MO, USA). Human breast adenocarcinoma cell line was cultured in mixture of Eagle medium (IIET, Wroclaw, Poland), supplemented with 10% fetal bovine serum, 2 mM L-glutamine, 8 μg/mL insulin and 1% amino-acids (Sigma-Aldrich, Merck KGaA, Saint Louis, MO, USA).
(§5) Human colon adenocarcinoma cell lines were cultured in mixture of OptiMEM and RPMI 1640 (1:1) medium (IIET, Wroclaw, Poland), supplemented with 5% fetal bovine serum (GE Healthcare, Logan UT, USA), 2 mM L-glutamine, 1 mM sodium pyruvate (Sigma-Aldrich, Merck KGaA, Saint Louis, MO, USA). Murine embryonic fibroblast cells were cultured in […]
(§6) Dulbecco medium (Life Technologies Limited, Paisley, UK), supplemented with 10% fetal bovine serum (GE Healthcare, Logan, UT, USA) and 2 mM glutamine (Sigma-Aldrich, Merck KGaA, Saint Louis, MO, USA). All culture media contained antibiotics: 100 U/mL penicillin and 100 μg/mL streptomycin (Polfa-Tarchomin, Warsaw, Poland). All cell lines were cultured during entire experiment in humid atmosphere at 37 °C and 5% CO2. Cells were tested for mycoplasma contamination by mycoplasma detection kit for conventional […]
(§7) The procedure is repeated every year or in the case of less frequently used lines:
(§8) The Antiproliferative Assays In Vitro
(§9) Twenty-four hours before adding the tested compounds, all cell lines were seeded in 384-well plates (Sarstedt, Nümbrecht, Germany) in appropriate media with 1x103 or 1,5x103

[2] = tested on: human colon adenocarcinoma cell line (LoVo); assay: cells; type: cell-based; conditions: for IC50: LoVo, 72 h, read-out: LoVo IC50; for SI (LoVo): SI = IC50 BALB/3T3 / IC50 LoVo
Protocol: as §1, §2, §3, §4, §5, §6, §7, §8, §9

[3] = tested on: human lung adenocarcinoma (A549); assay: cells; type: cell-based; conditions: for IC50: A549, 72 h, read-out: A549 IC50; for SI (A549): SI = IC50 BALB/3T3 / IC50 A549
Protocol: as §1, §2, §3, §4, §5, §6, §7, §8, §9

[4] = tested on: normal murine embryonic fibroblast cell line (BALB/3T3); assay: Antiproliferative assay in vitro (SRB, 72 h), BALB/3T3 normal cells; type: cell-based; conditions: normal cell line BALB/3T3, 72 h, mean ± SD
Protocol: as §1, §2, §3, §4, §5, §6, §7, §8, §9

tubulin = tested on: tubulin; set-up: method as in PMID 2708333; conditions: lower affinity relative to colchicine; cited from earlier work

SMILES	IC50 ([1]; Homo sapiens, MCF7, 72 h) [nM]	SI (MCF-7) [1]	IC50 ([2]; Homo sapiens) [nM]	SI (LoVo) [2]	IC50 ([3]; Homo sapiens) [nM]	SI (A549) [3]	IC50 ([4]; Mus musculus) [nM]	other results
COc1cc2c(c(OC)c1OC)-c1ccc(=O)c(O)cc1[C@@H](NC(C)=O)CC2 [Compound 1, 10-demethylcolchicine]	11200 ± 2520	0.91	6000 ± 1880	1.71	13000 ± 1790	0.79	10200 ± 960	
COc1cc2c(c(OC)c1OC)-c1ccc(OC(C)=O)c(=O)cc1[C@@H](NC(C)=O)CC2 [Compound 2a, Acetyl Ester of Colchiceine]								melting point: 120 to 122 °C
COc1cc2c(c(OC)c1OC)-c1ccc(OC(=O)C(C)C)c(=O)cc1[C@@H](NC(C)=O)CC2 [Compound 2c, Isobutyryl Ester of Colchiceine]								melting point: 123 to 125 °C
COc1cc2c(c(O)c1OC)-c1ccc(SC)c(=O)cc1C(NC(C)=O)CC2 (stereo not drawn) [Compound 3, 1-demethylthiocolchicine]	120 ± 50	4.92	110 ± 30		820 ± 20	0.74	610 ± 140	
COc1cc2c(c(OC(C)=O)c1OC)-c1ccc(SC)c(=O)cc1C(NC(C)=O)CC2 (stereo not drawn) [Compound 4a, Acetyl Ester of 1-demethylthiocolchicine]	100 ± 20		110 ± 20		480 ± 150	1.36	650 ± 120	
CCC(=O)Oc1c(OC)c(OC)cc2c1-c1ccc(SC)c(=O)cc1[C@@H](NC(C)=O)CC2 [Compound 4b, Propionyl Ester of 1-demethylthiocolchicine]	960 ± 130				970 ± 40		750 ± 100	
COc1cc2c(c(OC(=O)C(C)C)c1OC)-c1ccc(SC)c(=O)cc1[C@@H](NC(C)=O)CC2 [Compound 4c, Isobutyryl Ester of 1-demethylthiocolchicine]	860 ± 100	0.83	560 ± 60	1.27	890 ± 70	0.80	710 ± 30	
COc1cc2c(c(OC(=O)c3ccccc3)c1OC)-c1ccc(SC)c(=O)cc1[C@@H](NC(C)=O)CC2 [Compound 4d, Benzyl Ester of 1-demethylthiocolchicine]	780 ± 220	0.58	100 ± 80	4.71	600 ± 310	0.75	450 ± 230	
COC(=O)Oc1c(OC)c(OC)cc2c1-c1ccc(SC)c(=O)cc1C(NC(C)=O)CC2 (stereo not drawn) [Compound 4e, Methyl Carbonate of 1-demethylthiocolchicine]	1020 ± 100	0.77	430 ± 190	1.84	900 ± 90	0.87	780 ± 60	
CCOC(=O)Oc1c(OC)c(OC)cc2c1-c1ccc(SC)c(=O)cc1[C@@H](NC(C)=O)CC2 [Compound 4f, Ethyl Carbonate of 1-demethylthiocolchicine]	950 ± 200	1.09	790 ± 160	1.31	960 ± 130	1.08	1030 ± 200	
N.N.[Cl][Pt][Cl] [cisplatin, reference compound]		0.95		0.77		0.81		IC50 ([1]; MCF-7, 72 h, SRB, mean ± SD): 3050 ± 670 nM; IC50 ([2]; SRB, mean ± SD): 3800 ± 280 nM; IC50 ([3]; SRB, mean ± SD): 3600 ± 250 nM; IC50 [4]: 2910 ± 1830 nM
COc1cccc2c1C(=O)c1c(O)c3c(c(O)c1C2=O)C[C@@](O)(C(=O)CO)C[C@@H]3O[C@H]1C[C@H](N)[C@H](O)[C@H](C)O1 [doxorubicin, reference compound]		0.26		0.49		0.25	40 ± 30	IC50 ([1]; Homo sapiens, MCF7, MCF-7, 72 h, SRB, mean ± SD): 150 ± 50 nM; IC50 ([2]; Homo sapiens, SRB, mean ± SD): 80 ± 30 nM; IC50 ([3]; Homo sapiens, SRB, mean ± SD): 160 ± 30 nM
COc1cc2c(c(OC)c1OC)-c1ccc(=O)c(OC)cc1[C@@H](NC(C)=O)CC2 [isocolchicine]								affinity for binding to tubulin, times lower than colchicine (tubulin): 500 times
